Results reported in patent publication US20220081481A1, “USE OF AGENTS CAPABLE OF INDUCING LC3-ASSOCIATED PHAGOCYTOSIS FOR TREATING SUSTAINED INFLAMMATION IN PATIENTS SUFFERING FROM CHRONIC LIVER DISEASE” (INSERM (INSTITUT NATIONAL DE LA SANTÉ ET DE LA RECHERCHE …, priority 2019, published 2022).

Tested on: PBMC from cirrhotic patients and healthy donors
Test: Western blot of LC3-II lipidation in PBMC
Assay type: cell-based, human
Conditions: 30 μM chloroquine diphosphate, data not shown
Experimental: Peripheral blood mononuclear cells (PBMC) and monocyte isolation. PBMC were prepared from the blood of cirrhotic patients and healthy donors, using Ficoll density gradient centrifugation (Ficoll Paque™-plus, GE Healthcare, 17-1440-02), as previously described^43.
Cell treatment. Human monocytes, THP1-XBlue™-CD14 (Invivogen, Catalog #thpx-cd14sp) and THP1-FcγRIIA+−CD14+(kindly provided by Novimmune) monocytes were used. When indicated cells were exposed to either 30 μM chloroquine diphosphate (Sigma, C6628), 10 mM 3-Methyladenine (3-MA, Sigma, M9281-100 mg), 10 mM Diphenyleneiodonium chloride (DPI, Sigma, D2926-10 mg), or 10 mg/ml IVIg (Privigen, 100 mg/ml) for 4 hrs at 37° C., as indicated. We also used commercially synthetized Tat-conjugated peptides (30 μM, GeneCust, Dudelange): i) the Tat-p22phox N8 peptide corresponding to eight N-terminal amino acids (3-10) of p22phox that blocks the Rubicon-p22phox interaction^19; ii) its control mutant Tat-N8W9A peptide, in which one tryptophan residue is replaced by Alanine^19). In some experiments, cells were exposed to the preformed complex (10 μg/ml of mouse anti-hFcγRII mAb (clone AT-10, Santa Cruz, sc-13527) F(ab′)2 fragments+20 μg/ml goat anti-mouse anti-kappa F(ab′)2 fragments (Southern Biotech, 1052-01) or to 100 μg/ml of anti-hFcγRIIA mAb F(ab′)2 fragments (clone IV.3), purified as we previously described^26. […]

**Q.** Which results are given for `CCN(CC)CCCC(C)Nc1ccnc2cc(Cl)ccc12` (centres unmarked) [chloroquine, chloroquine diphosphate]?
**A.** LC3-II lipidation (PBMC from cirrhotic patients): further enhanced; LC3-II lipidation (cells from healthy donors): affected more marginally
